Source: patent publication US7320785B2, “Compositions and methods for modulation of DARPP-32 phosphorylation” (The Rockefeller University, priority 2001, dated 2008)
Like-named read-outs stand apart in the source and are kept apart here. Marks after values point to notes of the source that are not given here.

Experiments:
[1] = test system: DARPP-32; settings: cited from earlier work
[2] = test system: WT and DARPP-32 KO mice; assay: Locomotor activity measurements in activity monitors; assay type: in vivo, mouse
Description: Locomotor activity of WT and DARPP-32 KO mice was measured in activity monitors (43×44×45 cm) equipped with both horizontal and vertical sensors (Opto-Varimex, Columbus Instruments, Columbus, Ohio). Mice were acclimated to the boxes for 1 h, […] before the day of the experiment. The day of the experiment, mice were placed in the boxes for 20 min (habituation period) before drug administration. […] Locomotor activity parameters (distance traveled and stereotypic movements) were quantified by using the AutoTrack System (Columbus Instruments).

[3] = test system: c-fos mRNA; assay: c-fos mRNA expression by in situ hybridization in WT and DARPP-32 KO mice; assay type: in vivo, mouse; settings: 20 min postinjection
Description: Twenty minutes after the injections, the animals were killed by decapitation and their brains frozen at −80° C. Coronal sections were then made and processed for in situ hybridization experiments with a probe against c-fos mRNA. The expression of c-fos mRNA is widely used as a marker for the biochemical activity of neurons. Manipulations of the serotonergic system, by PCA (4 mg/kg) and 5-HTP (50 mg/kg+carbidopa 50 mg/kg), increased c-fos mRNA expression in several brain regions, including prefrontal cortex and striatum in DARPP-32 wild-type mice.

[4] = test system: DARPP-32; assay: DARPP-32 phosphorylation in vivo in mice after i.p. injection, immunoblotting; set-up: species or system mouse; settings: for phospho-Thr75 DARPP-32 / phospho-Thr34 DARPP-32: prefrontal cortex, 15 min
[5] = forced-swim test and tail suspension test; cited from earlier work
[6] = test system: GluR1 subunit of the AMPA receptor; assay: Phosphorylation of the GluR1 subunit of the AMPA receptor in slices from WT and DARPP-32 KO mice; assay type: cell-based, mouse
Description: In order to evaluate the involvement of DARPP-32 in the activity of serotonin, mice that lack DARPP-32 (DARPP-32 knockout (KO) mice) were used. In one set of experiments, striatal slices were prepared from normal mice (DARPP-32 wild-type) and DARPP-32 knockout mice and incubated with serotonin for 5 minutes. Experiments were then carried out to determine the levels of phospho-Ser845 of the GluR1 subunit of the AMPA (AMPA, α-amino-3-hydroxy-5-methyl-4-isoxazolepropionic acid) receptor.

[7] = test system: DARPP-32; assay: Thr34-DARPP-32 phosphorylation in striatal slices from unilaterally 6-OHDA-lesioned rats; assay type: cell-based, rat
Description: Further experiments were conducted that provide evidence that activation of a serotonergic intracellular signaling pathway and of DARPP-32 has applicability in the treatment of Parkinson's disease. In these experiment, rats were unilaterally (i.e. in one hemisphere) injected with 6-OHDA (6-hydroxydopamine; a dopaminergic neurotoxin) according to standard methods. The 6-OHDA is selectively taken up by dopaminergic neurons and kills the neurons. Such 6-OHDA-lesioned animals are considered an animal model of Parkinson's disease. The 6-OHDA-lesioned animals were sacrificed, striatal slices were prepared, as described hereinabove, from the non-lesioned (i.e., “normal”) and the 6-OHDA-lesioned (i.e., “dopamine-depleted”) hemispheres, and used for striatal slice experiments according to the methods described hereinabove. 5-HT or saline (control) was administered according to the methods described hereinabove. […] The interpretation of these experiments is that 5-HT activates DARPP-32 phosphorylation via a mechanism that is largely independent of enhanced dopaminergic neurotransmission. Agents that enhance serotonergic neurotransmission, and that are stimulatory, can thus exert anti-Parkinsonian effects independent of dopamine, and can be used in the treatment of Parkinson's disease.

[8] = test system: DARPP-32; assay: DARPP-32 phosphorylation in mouse brain slices, immunoblotting with phosphorylation state-specific antibodies; settings: for EC50 / activity at 100 µM: Mus musculus
[9] = test system: depressed patients; settings: several clinical trials; cited from earlier work
[10] = test system: phospho-Ser137-DARPP-32; assay: Dephosphorylation of phospho-Ser137-DARPP-32 by recombinant PP2C isoforms; assay type: biochemical, rat; settings: [^32P]phospho-Ser137 DARPP-32 as substrate; in the presence of 10 mM Mn^2+
Description: The activity of PP2C isoforms using ^32P-DARPP (phosphorylated at Ser137) was assayed at 37° C. in a reaction mixture containing 25 mM Tris-HCl, pH 7.5, 10 mM MnCl2, 1% BSA, and […] substrate, in a total volume of […]. Reactions were stopped by addition of […] of 50% trichloroacetic acid. Samples were then incubated on ice for 30 min and centrifuged at 10,000 g for 10 min at 4° C. Radioactivity recovered in the supernatant was measured by Cerenkov counting in a scintillation counter (Beckman).
(§1) Kinetic parameters (Km and Vmax) were determined from Lineweaver-Burk plots.
Legend Table 8. Enzymatic activities of PP2C isoforms assayed using [^32P]phospho-Ser137 DARPP-32 as substrate. Phosphatase activity was measured by the release of ^32P, and Km and Vmax values were calculated from Lineweaver-Burk plots of the data.

[11] = pNPP hydrolysis by recombinant PP2C isoforms (phosphatase assay); assay type: biochemical, rat; settings: for Vmax / kcat / Km: pNPP as substrate; for Km: 37° C.
Description: The activity of PP2C isoforms using pNPP as substrate was assayed as previously described (Brumel et al., 1997). […] The reaction was stopped by addition of 1 ml of 0.1 M NaOH, and the initial rate of p-nitrophenol release was determined spectrophotometrically at 405 nm (using a molar extinction coefficient of 18 000 M−1 cm−1).
as §1
Legend Table 7. Enzymatic activities of PP2C isoforms assayed using pNPP as substrate. Phosphatase activity was measured using pNPP as substrate by the change in absorbance at 405 nm. Km and Vmax values were calculated from Lineweaver-Burk plots of the data.

[12] = 5-HTP 50 mg/kg + carbidopa 50 mg/kg
[13] = striatum, 4 mg/kg i.p., 15 min after injection
[14] = slices from hippocampus, frontal cortex, striatum, WT mice, serotonin 100 μM, 10 min
[15] = striatal slices, serotonin for 5 minutes
[16] = nucleus accumbens slices, serotonin 100 μM, 2 min, n=12

N[C@@H]1C[C@H]1c1ccccc1 (racemic) [tranylcypromine]
frontal cortex levels of DARPP-32 immunoreactivity ([1]; rat, in vivo): significant increases

N[C@@H](Cc1c[nH]c2ccc(O)cc12)C(=O)O [5-HTP, 5-hydroxytryptophan]
locomotor activity and stereotypic behavior ([2]; DARPP-32 KO mice, 5-HTP 50 mg/kg i.p. 30 min after carbidopa 50 mg/kg): abolished
locomotor activity and stereotypic behavior ([2]; WT mice, 5-HTP 50 mg/kg i.p. 30 min after carbidopa 50 mg/kg): robust increase
c-fos mRNA Levels in Striatum, DARPP-32 Knockout [3, 12]: 0.092(0.009)#*
c-fos mRNA Levels in Striatum, DARPP-32 Wild-type [3, 12]: 0.195(0.017)*
phospho-Thr75 DARPP-32 ([4]; 5-HTP 50 mg/kg i.p. after carbidopa, n=5): 74±8.0%
phospho-Thr34 DARPP-32 ([4]; 5-HTP 50 mg/kg i.p. after carbidopa, n=5 mice): 144±8.3%

CC(CNS(=O)(=O)C(C)C)c1ccc(-c2ccsc2)cc1 (stereo not drawn) [LY392098]
antidepressant-like actions [5]: robust antidepressant-like actions

CC(CNS(=O)(=O)C(C)C)c1ccc(-c2ccc(C#N)cc2)cc1 (stereo not drawn) [LY404187]
antidepressant-like actions [5]: robust antidepressant-like actions

CC(N)Cc1ccc(Cl)cc1 (stereo not drawn) [PCA, para-chloroamphetamine]
locomotor activity and stereotypic behavior ([2]; DARPP-32 KO mice, PCA 4 mg/kg i.p.): abolished
locomotor activity and stereotypic behavior ([2]; WT mice, PCA 4 mg/kg i.p., 50 min): robust increase
c-fos mRNA Levels in Striatum, DARPP-32 Knockout ([3]; PCA 4 mg/kg i.p.): 0.084(0.010)#*
c-fos mRNA Levels in Striatum, DARPP-32 Wild-type ([3]; PCA 4 mg/kg i.p.): 0.181(0.021)*
phospho-Thr34 DARPP-32 ([4]; PCA 4 mg/kg i.p., n=5 mice): 147±4.8%
phospho-Thr75 DARPP-32 ([4]; PCA 4 mg/kg i.p., n=5 mice): 79±3.8%
Percent Phospho-Ser137 [4, 13]: 128(7.1)* Percent
Percent Phospho-Thr34 [4, 13]: 171(9.1)* Percent
Percent Phospho-Thr75 [4, 13]: 80.1(3.4)* Percent

NCCc1c[nH]c2ccc(O)cc12 [Serotonin]
increased phosphorylation at Ser-845 GluR1, DARPP-32 KO versus WT ([6]; slices from DARPP-32 KO mice, serotonin 100 μM): significantly reduced
phosphorylation at Ser-831 GluR1 [6, 14]: increased
phosphorylation at Ser-845 GluR1 [6, 14]: increased
Ser845-GluR1 Levels, DARPP-32 Knockout [6, 15]: 111(14.9)# percentage of control
Ser845-GluR1 Levels, DARPP-32 Wild-type [6, 15]: 199(22.7)* percentage of control
Percent Phospho-Thr34 ([7]; 6-OHDA lesioned hemisphere): 369(67.2)* Percent
Percent Phospho-Thr34 ([7]; Intact hemisphere): 306(50.7) Percent
EC50 ([8]; 2 min, read-out: EC50 for effect on DARPP-32 phosphorylation at Ser137): 37.6 µM
EC50 ([8]; 2 min, read-out: EC50 for effect on DARPP-32 phosphorylation at Thr34): 13.5 µM
activity at 100 µM ([8]; 2 min, read-out: Percent Phospho-Ser137): 141%
activity at 100 µM ([8]; 2 min, read-out: Percent Phospho-Thr34): 342%
EC50 ([8]; 10 min, read-out: EC50 for effect on DARPP-32 phosphorylation at Thr75): 29.6 µM
activity at 100 µM ([8]; 10 min, read-out: Percent Phospho-Thr75): 76%
phosphorylation at Ser137 [8, 16]: 143±7%
phosphorylation at Thr34 [8, 16]: 307±25%
phosphorylation at Thr75 ([8]; nucleus accumbens slices, serotonin, 10 min, n=12): 75±6%
phospho-Thr34 DARPP-32 ([8]; prefrontal cortex slices, 2 min of incubation, n=6): 185±15%
phospho-Thr75 DARPP-32 ([8]; prefrontal cortex slices, 10 min of incubation, n=6): 85±3%

O=C(CCCN1CCC(O)(c2ccc(Cl)cc2)CC1)c1ccc(F)cc1 [haloperidol]
frontal cortex levels of DARPP-32 immunoreactivity ([1]; chronic administration in rats): without effects

CN(C)CCCN1c2ccccc2CCc2ccccc21 [imipramine]
frontal cortex levels of DARPP-32 immunoreactivity ([1]; chronic administration in rats): significant increases

CN1CC[C@]23c4c5ccc(O)c4O[C@H]2[C@@H](O)C=C[C@H]3[C@H]1C5 [morphine]
frontal cortex levels of DARPP-32 immunoreactivity ([1]; rat, in vivo): without effects

COc1ccc(C2CNC(=O)C2)cc1OC1CCCC1 (stereo not drawn) [rolipram]
anti-depressant efficacy [9]: has anti-depressant efficacy

B1: PP2Cg: recombinant his-tagged gamma isoform of protein phosphatase 2C cloned from rat striatum (protein)
chain: MGAYLSQPNTVKCSGDGVGAPRLPLPYGFSAMQGWRVSMEDAHNCIPELDNETAMFSVYDGHGGEEVALYCAKYLPDIIKDQKAYKEGKLQKALQDAFLAIDAKLTTDEVIKELAQIAGRPTEDEDDKEKVADEDDVDNEEAALLHEEATMTIEELLTRYGQNCQKGPPHTKSGTGIGDEPEPQGLNGEAGPEDPSRETPSQENGPTAKGHTGPSSNSDHGTEAGQIGEPGTATGEAGPSCSSASDKLPRVAKSKFFEDSEDESDEVEEEEDDSEECSEDEDGYSSEEAENEEDEDDTEEAEEDDDEEMMVPGMEGKEEPGSDSGTTAVVALIRGKQLIVANAGDSRCVVSEAGKALDMSYDHKPEDEVELARIKNAGGKVTMDGRVNGGLNLSRAIGDHFYKRNKNLPPQEQMISALPDIKVLTLTDDHEFMVIACDGIWNVMSSQEVVDFIQSKISQRDENGELRLLSSIVEELLDQCLAPDTSGDGTGCDNMTCIIICFKPRNTVELQPESGKRKLEEALSTEGAEENGNSDKKKAKRD
modifications: left off: small tags and cut ends
notes: recombinant his-tagged gamma isoform of protein phosphatase 2C cloned from rat striatum
Km [10]: 7 µM
Vmax [10]: 0.31 µmol/mg/min
kcat [10]: 0.32 s⁻¹
Vmax of pNPP hydrolysis, Mn^2+ compared to Mg^2+ (higher) ([11]; 20 mM Mn^2+ versus 20 mM Mg^2+): 15 fold
Km of pNPP hydrolysis, Mn^2+ compared to Mg^2+ (lower) ([11]; Mn^2+ substitutes Mg^2+): 24 fold
Vmax ([11]; in the presence of 20 mM Mg^2+): 0.09 µmol/mg/min
kcat ([11]; in the presence of 20 mM Mg^2+): 0.094 s⁻¹
Km ([11]; in the presence of 20 mM Mg^2+): 12800 µM
Vmax ([11]; in the presence of 20 mM Mn^2+): 1.29 µmol/mg/min
kcat ([11]; in the presence of 20 mM Mn^2+): 1.35 s⁻¹
Km ([11]; in the presence of 20 mM Mn^2+): 520 µM
